Assay results published in the NIST ThermoML archive (doi:10.1021/acs.jced.5b00105).
Numbers after ± are expanded uncertainties.

Assay: refractive index (Na D-line) (dimensionless); xn = mol fraction of the nth substance listed
Conditions: 100 kPa, Liquid

CCC1CCCCC1 [ethylcyclohexane] + CC(C)CC(C)(C)C
refractive index
Conditions | 293.15 K | 298.15 K | 303.15 K | 308.15 K | 313.15 K | 318.15 K | 323.15 K
x1 = 0.1 | 1.3959 ± 0.0015 | 1.3926 ± 0.0015 | 1.3918 ± 0.0015 | 1.3889 ± 0.0015 | 1.3877 ± 0.0015 | 1.3826 ± 0.0015 | 1.3805 ± 0.0015
x1 = 0.1999 | – | 1.3965 ± 0.0015 | – | 1.3932 ± 0.0015 | – | 1.3867 ± 0.0015 | 1.3849 ± 0.0015
x1 = 0.2 | 1.4005 ± 0.0015 | – | 1.3964 ± 0.0015 | – | 1.3924 ± 0.0015 | – | –
x1 = 0.3 | – | 1.4004 ± 0.0015 | – | 1.3975 ± 0.0015 | – | 1.3912 ± 0.0015 | 1.3891 ± 0.0015
x1 = 0.3003 | 1.4043 ± 0.0015 | – | 1.4003 ± 0.0015 | – | 1.396 ± 0.0015 | – | –
x1 = 0.3997 | 1.4084 ± 0.0015 | – | 1.4041 ± 0.0015 | – | 1.4003 ± 0.0015 | – | –
x1 = 0.4 | – | 1.4046 ± 0.0015 | – | 1.4015 ± 0.0015 | – | 1.3954 ± 0.0015 | 1.3931 ± 0.0015
x1 = 0.5 | – | 1.4086 ± 0.0015 | – | 1.4059 ± 0.0015 | – | 1.3996 ± 0.0015 | 1.3975 ± 0.0015
x1 = 0.5002 | 1.4123 ± 0.0015 | – | 1.4084 ± 0.0015 | – | 1.4047 ± 0.0015 | – | –
x1 = 0.6001 | – | 1.4129 ± 0.0015 | – | 1.4098 ± 0.0015 | – | 1.4037 ± 0.0015 | 1.4015 ± 0.0015
x1 = 0.6005 | 1.4167 ± 0.0015 | – | 1.4125 ± 0.0015 | – | 1.4087 ± 0.0015 | – | –
x1 = 0.7002 | 1.4207 ± 0.0015 | – | 1.4169 ± 0.0015 | – | 1.4132 ± 0.0015 | – | –
x1 = 0.7004 | – | 1.4172 ± 0.0015 | – | 1.4146 ± 0.0015 | – | 1.4081 ± 0.0015 | 1.4059 ± 0.0015
x1 = 0.8001 | – | 1.4214 ± 0.0015 | – | 1.4186 ± 0.0015 | – | 1.4118 ± 0.0015 | 1.4097 ± 0.0015
x1 = 0.8003 | 1.4254 ± 0.0015 | – | 1.4211 ± 0.0015 | – | 1.4175 ± 0.0015 | – | –
x1 = 0.8994 | – | 1.4256 ± 0.0015 | – | 1.4228 ± 0.0015 | – | 1.4161 ± 0.0015 | 1.4144 ± 0.0015
x1 = 0.8997 | 1.4295 ± 0.0015 | – | 1.4253 ± 0.0015 | – | 1.4216 ± 0.0015 | – | –
x1 = 1 | 1.4337 ± 0.0015 | 1.4301 ± 0.0015 | 1.4295 ± 0.0015 | 1.4278 ± 0.0015 | 1.4259 ± 0.0015 | 1.4204 ± 0.0015 | 1.4187 ± 0.0015

CC1CCCCC1 [methylcyclohexane] + CC(C)CC(C)(C)C
refractive index
Conditions | 293.15 K | 298.15 K | 303.15 K | 308.15 K | 313.15 K | 318.15 K | 323.15 K
x1 = 0.0999 | – | 1.3912 ± 0.0015 | – | 1.3876 ± 0.0015 | – | 1.3811 ± 0.0015 | 1.3789 ± 0.0015
x1 = 0.1012 | 1.395 ± 0.0015 | – | 1.3903 ± 0.0015 | – | 1.3861 ± 0.0015 | – | –
x1 = 0.1999 | – | 1.3938 ± 0.0015 | – | 1.3902 ± 0.0015 | – | 1.3844 ± 0.0015 | 1.3819 ± 0.0015
x1 = 0.2003 | 1.3975 ± 0.0015 | – | 1.3929 ± 0.0015 | – | 1.3887 ± 0.0015 | – | –
x1 = 0.2997 | – | 1.3966 ± 0.0015 | – | 1.3942 ± 0.0015 | – | 1.3871 ± 0.0015 | 1.3846 ± 0.0015
x1 = 0.3001 | 1.4 ± 0.0015 | – | 1.3958 ± 0.0015 | – | 1.3916 ± 0.0015 | – | –
x1 = 0.4 | – | 1.3997 ± 0.0015 | – | 1.3962 ± 0.0015 | – | 1.3898 ± 0.0015 | 1.3869 ± 0.0015
x1 = 0.4019 | 1.403 ± 0.0015 | – | 1.3988 ± 0.0015 | – | 1.3947 ± 0.0015 | – | –
x1 = 0.5 | – | 1.4028 ± 0.0015 | – | 1.3998 ± 0.0015 | – | 1.393 ± 0.0015 | 1.3905 ± 0.0015
x1 = 0.5008 | 1.406 ± 0.0015 | – | 1.4018 ± 0.0015 | – | 1.3978 ± 0.0015 | – | –
x1 = 0.6 | 1.409 ± 0.0015 | 1.4059 ± 0.0015 | 1.4049 ± 0.0015 | 1.4029 ± 0.0015 | 1.401 ± 0.0015 | 1.3962 ± 0.0015 | 1.3938 ± 0.0015
x1 = 0.6998 | 1.4125 ± 0.0015 | – | 1.4082 ± 0.0015 | – | 1.4043 ± 0.0015 | – | –
x1 = 0.7001 | – | 1.4092 ± 0.0015 | – | 1.4064 ± 0.0015 | – | 1.3993 ± 0.0015 | 1.397 ± 0.0015
x1 = 0.7999 | – | 1.4127 ± 0.0015 | – | 1.4097 ± 0.0015 | – | 1.403 ± 0.0015 | 1.4 ± 0.0015
x1 = 0.8 | 1.4158 ± 0.0015 | – | 1.4117 ± 0.0015 | – | 1.4077 ± 0.0015 | – | –
x1 = 0.9 | 1.4195 ± 0.0015 | 1.4161 ± 0.0015 | 1.4153 ± 0.0015 | 1.4132 ± 0.0015 | 1.4114 ± 0.0015 | 1.4066 ± 0.0015 | 1.4039 ± 0.0015
x1 = 1 | 1.4232 ± 0.0015 | 1.4199 ± 0.0015 | 1.419 ± 0.0015 | 1.4168 ± 0.0015 | 1.415 ± 0.0015 | 1.4102 ± 0.0015 | 1.4078 ± 0.0015
